Test results published in patent publication US20230107216A1, “PANTETHEINE DERIVATIVES AND USES THEREOF” (Comet Therapeutics, Inc., priority 2018, published 2023).
Like-named read-outs stand apart in the source and are kept apart here.

Experiments:
[1] = system: Methylmalonic Acidemia (MMA) primary fibroblasts GM01673; experiment: Mitochondrial respiration, XFe96 Extracellular Flux Analyzer (OCR/ECAR), MMA fibroblasts GM01673; type: cell-based; conditions: Homo sapiens, Fibroblast
How it was run: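 Primary fibroblasts (20000 cells/well) were held 24 h in supplemented DMEM before Seahorse OCR/ECAR profiling. Compounds at 10 to 50 μM or 0.1% DMSO were injected after baseline, then oligomycin 1 μg/ml, FCCP, and rotenone/antimycin A 0.5 μM. Values were normalized to Hoechst nuclear counts, baselined to pre-compound, and expressed relative to vehicle.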

HepG2 cells = experiment: MitoBiogenesis In-Cell ELISA (COX-I, SDH-A); type: cell-based; conditions: Homo sapiens, 168 h, 7 days, read-out: % increase in Mitochondrial Biogenesis
How it was run: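 HepG2 cells were plated, adhered overnight at 37 °C/5% CO2, then exposed to test compounds (50–10 μM) in DMEM with 10% FBS for 7 days without media change; vehicle was 0.2% DMSO. COX-I and SDH-A were measured by in-cell ELISA and reported as signal relative to vehicle, n=2.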

[2] = assay condition D (1 mM glucose, 10% FBS), read-out: Increase in Maximal Respiratory Capacity AUC
[3] = assay condition A (10 mM glucose, 2 mM L-glutamine, 1 mM pyruvate, 10% FBS), read-out: Increase in Maximal Respiratory Capacity AUC

How did the activation at 10 µM [1, 2] turn out when `CC(C)(CO)[C@@H](O)C(=O)NCCC(=O)NCCSC(CC(=O)OCC[N+](C)(C)C)C(=O)O` (stereo partly drawn) [Compound 51, [2-([3-carboxy-3-[(2-[3-[(2R)-2,4-dihydroxy-3,3-dimethylbutanamido]propanamido]ethyl)sulfanyl]propanoyl]oxy)ethyl]trimethylazanium] was run?
Its activation at 10 µM is ≥ 10%.

Which activation at 10 µM ([1]; assay condition D (1 mM glucose, 10% FBS), read-out: Increase in Spare Capacity AUC) does the source give for `CC(C)(CO)[C@@H](O)C(=O)NCCC(=O)NCCSC(=O)CC(=O)CCC(=O)O` [Compound 2, 6-[(2-[3-[(2R)-2,4-dihydroxy-3,3-dimethylbutanamido]propanamido]ethyl)sulfanyl]-4,6-dioxohexanoic acid] here?
The activation at 10 µM was ≥ 50%.

How did the activation at 50 µM (HepG2 cells) turn out when `CC(O)C(C(=O)SCCNC(=O)CCNC(=O)[C@H](O)C(C)(C)CO)C(C)O` (stereo partly drawn) [Compound 1285, (2R)-2,4-dihydroxy-N-[2-[(2-[[3-hydroxy-2-(1-hydroxyethyl)butanoyl]sulfanyl]ethyl)carbamoyl]ethyl]-3,3-dimethylbutanamide] was run?
The activation at 50 µM was > 10%.

`COC(=O)C(C)C(=O)SCCNC(=O)CCNC(=O)[C@H](O)C(C)(C)CO` (stereo partly shown) [Compound 405] was tested. Which activation at 50 µM (HepG2 cells) did it give?
Its activation at 50 µM is > 5%.

`CC(C)(CO)[C@@H](O)C(=O)NCCC(=O)NCCSC(=O)[C@@H](N)Cc1ccc(O)c(O)c1` [Compound 371, (2R)—N-[2-[(2-[[(2S)-2-amino-3-(3,4-dihydroxyphenyl)propanoyl]sulfanyl]ethyl)carbamoyl]ethyl]-2,4-dihydroxy-3,3-dimethylbutanamide] was tested. Which activation at 10 µM [1, 2] did it give?
The activation at 10 µM was ≥ 10%.

For `COC(=O)CCC(=O)SCCNC(=O)CCNC(=O)[C@H](O)C(C)(C)CO` [Compound 4, Methyl (R)-4-((2-(3-(2,4-dihydroxy-3,3-dimethylbutanamido)propanamido)ethyl)thio)-4-oxobutanoate], which activation at 50 µM (HepG2 cells) is on record?
The activation at 50 µM was > 5%.

Which activation at 10 µM [1, 2] does the source give for `COC(=O)CC(SCCNC(=O)CCNC(=O)[C@H](O)C(C)(C)COC(C)=O)C(=O)OC` (stereo partly drawn) [Compound 149, 1,4-dimethyl 2-[(2-[3-[(2R)-4-(acetyloxy)-2-hydroxy-3,3-dimethylbutanamido]propanamido]ethyl)sulfanyl]butanedioate] here?
Its activation at 10 µM is ≥ 10%.

Which activation at 50 µM ([1]; assay condition A (10 mM glucose, 2 mM L-glutamine, 1 mM pyruvate, 10% FBS), 50 μM, read-out: Increase in Spare Capacity AUC) does the source give for `COC(=O)CC(C(C)=O)C(=O)SCCNC(=O)CCNC(=O)[C@H](O)C(C)(C)CO` (stereo partly shown) [Compound 410] here?
The activation at 50 µM was ≥ 10%.

Which activation at 10 µM (HepG2 cells) does the source give for `CC(C)(CO)[C@@H](OC(=O)CCC(=O)O)C(=O)NCCC(=O)NCCS` [Compound 1311, (R)-4-((4-hydroxy-1-((3-((2-mercaptoethyl)amino)-3-oxopropyl)amino)-3,3-dimethyl-1-oxobutan-2-yl)oxy)-4-oxobutanoic acid] here?
Its activation at 10 µM is 5%.

How did the activation at 10 µM [1, 3] turn out when `CC(=O)SCCNC(=O)CCNC(=O)[C@H](O)C(C)(C)COC(=O)[C@H](C)N` [Compound 502, (3R)-3-[(2-[[2-(acetylsulfanyl)ethyl]carbamoyl]ethyl)carbamoyl]-3-hydroxy-2,2-dimethylpropyl (2S)-2-aminopropanoate] was run?
Its activation at 10 µM is ≥ 10%.

With `CC(C)(CO)[C@@H](O)C(=O)NCCC(=O)NCCSC(=O)CCCO` [Compound 1304, (2R)-2,4-dihydroxy-N-[2-([2-[(4-hydroxybutanoyl)sulfanyl]ethyl]carbamoyl)ethyl]-3,3-dimethylbutanamide] as the molecule, how does the activation at 10 µM [1, 3] read?
Its activation at 10 µM is ≥ 10%.

For `CC(C)C(=O)CC(=O)SCCNC(=O)CCNC(=O)[C@H](O)C(C)(C)CO` [Compound 1239, (R)—S-(2-(3-(2,4-dihydroxy-3,3-dimethylbutanamido)propanamido)ethyl) 4-methyl-3-oxopentanethioate], which activation at 10 µM (HepG2 cells) is on record?
Its activation at 10 µM is > 5%.

How did the activation at 10 µM ([1]; assay condition A (10 mM glucose, 2 mM L-glutamine, 1 mM pyruvate, 10% FBS), read-out: Increase in Spare Capacity AUC) turn out when `CCCCCCC(=O)SCCNC(=O)CCNC(=O)[C@H](O)C(C)(C)CO` [Compound 372, (2R)—N-(2-[[2-(heptanoylsulfanyl)ethyl]carbamoyl]ethyl)-2,4-dihydroxy-3,3-dimethylbutanamide] was run?
The activation at 10 µM was ≥ 10%.

For `C/C=C/C(=O)SCCNC(=O)CCNC(=O)[C@H](O)C(C)(C)COP(=O)(O)O` [Compound 82, (R)—S-(2-(3-(2-hydroxy-3,3-dimethyl-4-(phosphonooxy)butanamido)propanamido)ethyl) (E)-but-2-enethioate], which activation at 50 µM (HepG2 cells) is on record?
The activation at 50 µM was > 10%.

`CCC(C)C(=O)CC(=O)SCCNC(=O)CCNC(=O)[C@H](O)C(C)(C)CO` (stereo partly drawn) [Compound 1240, S-(2-(3-((R)-2,4-dihydroxy-3,3-dimethylbutanamido)propanamido)ethyl) 4-methyl-3-oxohexanethioate] was tested. Which activation at 50 µM (HepG2 cells) did it give?
The activation at 50 µM was > 20%.

`CC(C)(CO)[C@@H](O)C(=O)NCCC(=O)NCCSC(=O)CCCN` [Compound 370, (2R)—N-[2-([2-[(4-aminobutanoyl)sulfanyl]ethyl]carbamoyl)ethyl]-2,4-dihydroxy-3,3-dimethylbutanamide] was tested. Which activation at 10 µM [1, 2] did it give?
Its activation at 10 µM is ≥ 10%.
